Tests used:
Aβ42 = assay: Cellular αlisa assay in SKNBE2 cells, Aβ42; type: cell-based, human; details: SKNBE2 cells expressing hAPP695, 18 hours incubation; for IC50: Homo sapiens, SKNBE2, 18 h, read-out: Cellular αlisa assay in SKNBE2 cells Aβ42 pIC50 (converted)
Description: (§1) In two αlisa assays the levels of Aβtotal and Aβ42 produced and secreted into the medium of human neuroblastoma SKNBE2 cells are quantified. The assay is based on the human neuroblastoma SKNBE2 expressing the wild type Amyloid Precursor Protein (hAPP695). The compounds are diluted and added to these cells, incubated for 18 hours and then measurements of Aβ42 and Aβtotal are taken. Aβtotal and Aβ42 are measured by sandwich αlisa. αlisa is a sandwich assay using biotinylated antibody AbN/25 attached to streptavidin coated beads and antibody Ab4G8 or cAb42/26 conjugated acceptor beads for the detection of Aβtotal and Aβ42 respectively. In the presence of Aβtotal or Aβ42, the beads come into close proximity. The excitation of the Donor beads provokes the release of singlet oxygen molecules that triggers a cascade of energy transfer in the Acceptor beads, resulting in light emission. Light emission is measured after 1 hour incubation (excitation at […] and emission at 615 nm).
(§2) From this an […] value (inhibitory concentration causing 50% inhibition of activity) can be obtained.

BACE1 = BACE1 (Homo sapiens, UniProt P56817); assay: Biochemical FRET based assay; details: Biochemical FRET based assay pIC50, recombinant BACE1 1 μg/ml, 120 min, room temperature, pH 5.0
Chain of BACE1 (P56817 46-501): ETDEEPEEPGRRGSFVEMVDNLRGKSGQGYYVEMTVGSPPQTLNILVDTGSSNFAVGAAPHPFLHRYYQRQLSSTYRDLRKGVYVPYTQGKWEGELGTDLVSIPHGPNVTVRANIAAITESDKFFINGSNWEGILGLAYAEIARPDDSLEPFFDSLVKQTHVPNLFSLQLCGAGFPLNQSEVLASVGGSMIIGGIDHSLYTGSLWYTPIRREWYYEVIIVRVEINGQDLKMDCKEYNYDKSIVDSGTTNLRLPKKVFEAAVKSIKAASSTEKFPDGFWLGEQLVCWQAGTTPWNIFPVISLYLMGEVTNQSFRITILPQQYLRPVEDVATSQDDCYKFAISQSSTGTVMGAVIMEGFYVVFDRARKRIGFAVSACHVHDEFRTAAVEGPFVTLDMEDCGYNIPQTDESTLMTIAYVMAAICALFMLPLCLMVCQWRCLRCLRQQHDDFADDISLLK
Text: This assay is a Fluorescence Resonance Energy Transfer Assay (FRET) based assay. The substrate for this assay is an APP derived 13 amino acids peptide that contains the ‘Swedish’ Lys-Met/Asn-Leu mutation of the amyloid precursor protein (APP) β-secretase cleavage site. This substrate also contains two fluorophores: (7-methoxy-coumarin-4-yl) acetic acid (Mca) is a fluorescent donor with excitation wavelength at 320 nm and emission at 405 nm and 2,4-Dinitrophenyl (Dnp) is a proprietary quencher acceptor. […] Upon cleavage by BACE1, the fluorophore Mca is separated from the quenching group Dnp, restoring the full fluorescence yield of the donor. The increase in fluorescence is linearly related to the rate of proteolysis (Koike H et al. J. Biochem. 1999, 126, 235-242).
Briefly in a 384-well format recombinant BACE1 protein in a final concentration of 1 μg/ml is incubated for 120 min at room temperature with 10 μm substrate in incubation buffer (40 mM Citrate buffer pH 5.0, 0.04% PEG, 4% DMSO) in the absence or presence of compound. Next the amount of proteolysis is directly measured by fluorescence measurement at T=0 and T=120 (excitation at 320 nm and emission at 405 nm). Results are expressed in RFU, as difference between T120 and T0
From this an IC50 value (inhibitory concentration causing 50% inhibition of activity) can be obtained.

Aβtotal = assay: Cellular αlisa assay in SKNBE2 cells, Aβtotal; type: cell-based, human; details: SKNBE2 cells expressing hAPP695, 18 hours incubation; for IC50: Homo sapiens, SKNBE2, 18 h, read-out: Cellular αlisa assay in SKNBE2 cells Aβtotal pIC50 (converted)
Description: as §1, §2

| SMILES | IC50 (Aβ42) [nM] | IC50 (BACE1) [nM] | IC50 (Aβtotal) [nM] | Cellular αlisa assay in SKNBE2 cells Aβ42 pIC50 (Aβ42) | Cellular αlisa assay in SKNBE2 cells Aβtotal pIC50 (Aβtotal) |
| --- | --- | --- | --- | --- | --- |
| Cc1nc(C(=O)Nc2ccc(F)c([C@]3(C)Cn4cc(F)cc4C(N)=N3)c2)c(C(F)(F)F)o1 [Compound 18] | 31.6 | 83.2 | 30.9 | – | – |
| COc1cnc(C(=O)Nc2ccc(F)c(C3(C(F)F)Cn4cccc4C(N)=N3)c2)cn1 (single isomer, unassigned) [Compound 13] | – | 18200 | – | 5.63 | 5.62 |
| C[C@@]1(c2cc(NC(=O)c3ncc(C#N)cc3F)ccc2F)Cn2cc(C(F)(F)F)cc2C(N)=N1 [Compound 15] | 9.33 | 36.3 | 8.91 | – | – |
| CC1(c2cccc(-c3cc(Cl)cc(Cl)c3)c2)Cn2cccc2C(N)=N1 (racemic) [Compound 2, rac-3-(3′,5′-dichloro-biphenyl-3-yl)-3-methyl-3,4-dihydro-pyrrolo[1,2-a]pyrazin-1-ylamine] | 4470 | 3720 | 4270 | – | – |
| Cc1nc(C(=O)Nc2ccc(F)c([C@]3(C)Cn4cc(C(F)(F)F)cc4C(N)=N3)c2)co1 [Compound 21] | – | 95.5 | – | 7.83 | 7.79 |
| COCC1(c2cc(NC(=O)c3cnc(OC)cn3)ccc2F)Cn2cc(C(F)(F)F)cc2C(N)=N1 (stereo not drawn) [Compound 27] | – | > 50100 | – | <5 | <5 |
| COCC1(c2cc(NC(=O)c3cnc(OC)cn3)ccc2F)Cn2cc(C(F)(F)F)cc2C(N)=N1 (stereo not drawn) [Compound 28] | – | 1910 | – | 6.53 | 6.52 |
| COCC1(c2cc(NC(=O)c3ccc(F)cn3)ccc2F)Cn2cc(C(F)(F)F)cc2C(N)=N1 (stereo not drawn) [Compound 29] | – | 2040 | – | 6.32 | 6.33 |
| COc1cnc(C(=O)Nc2ccc(F)c([C@]3(C)Cn4cc(F)cc4C(N)=N3)c2)cn1 [Compound 8, (R)-5-methoxy-pyrazine-2-carboxylic acid [3-(1-amino-7-fluoro-3-methyl-3,4-dihydro-pyrrolo[1,2-a]pyrazin-3-yl)-4-fluoro-phenyl]-amide] | 2.19 | 33.1 | 2.04 | – | – |
| Cc1nc(C(=O)Nc2ccc(F)c([C@]3(C)Cn4cc(C(F)(F)F)cc4C(N)=N3)c2)c(C(F)(F)F)o1 [Compound 23] | 75.9 | 182 | 77.6 | – | – |
| NC1=NC(c2cc(NC(=O)c3ccc(F)cn3)ccc2F)(C(F)F)Cn2cccc21 (stereo not drawn) [Compound 14] | 37.2 | 174 | 35.5 | – | – |
| Cc1nc(C(=O)Nc2ccc(F)c([C@]3(C)Cn4cc(C(F)(F)F)cc4C(N)=N3)c2)c(C)o1 [Compound 19] | 66.1 | 178 | 63.1 | – | – |
| CC1(c2cccc(-c3cncnc3)c2)Cn2cccc2C(N)=N1 (racemic) [Compound 1, rac-3-methyl-3-(3-pyrimidin-5-yl-phenyl)-3,4-dihydro-pyrrolo[1,2-a]pyrazin-1-ylamine] | 3980 | 12000 | 3890 | – | – |
| COc1cnc(C(=O)Nc2ccc(F)c(C3(C(F)F)Cn4cccc4C(N)=N3)c2)cn1 (single isomer, unassigned) [Compound 12] | – | 37.2 | – | 7.85 | 7.9 |
| COCC1(c2cc(NC(=O)c3ccc(F)cn3)ccc2F)Cn2cc(C(F)(F)F)cc2C(N)=N1 (stereo not drawn) [Compound 25] | – | 5010 | – | 6.04 | 6.07 |
| C[C@@]1(c2cc(NC(=O)c3ccn(C(F)F)n3)ccc2F)Cn2cc(C(F)(F)F)cc2C(N)=N1 [Compound 10] | 13.5 | 47.9 | 12.6 | – | – |
| Cc1nc(C(=O)Nc2ccc(F)c([C@]3(C)Cn4cc(F)cc4C(N)=N3)c2)c(C)o1 [Compound 17] | 32.4 | 67.6 | 33.9 | – | – |
| COc1cnc(C(=O)Nc2cccc(C3(C)Cn4cccc4C(N)=N3)c2)cn1 (racemic) [Compound 4, rac-5-methoxy-pyrazine-2-carboxylic acid [3-(1-amino-3-methyl-3,4-dihydro-pyrrolo[1,2-a]pyrazin-3-ye-phenyl]-amide] | 110 | 234 | 93.3 | – | – |
| COCC1(c2cc(NC(=O)c3ccn(C(F)F)n3)ccc2F)Cn2cc(C(F)(F)F)cc2C(N)=N1 (single isomer, unassigned) [Compound 31] | – | > 50100 | – | <5 | <5 |
| C[C@@]1(c2cc(NC(=O)c3ccsn3)ccc2F)Cn2cc(C(F)(F)F)cc2C(N)=N1 [Compound 22] | 49 | 224 | 47.9 | – | – |
| COc1cnc(C(=O)Nc2ccc(F)c(C3(C(F)F)Cn4cccc4C(N)=N3)c2)cn1 (racemic) [Compound 11] | 11 | 107 | 9.55 | – | – |
| CC1(c2cccc(NC(=O)c3ccc(Cl)cn3)c2)Cn2cccc2C(N)=N1 (racemic) [Compound 3, rac-5-chloro-pyridine-2-carboxylic acid[3-(1-amino-3-methyl-3,4-dihydro-pyrrolo[1,2-a]pyrazin-3-ye-phenyl]-amide] | 100 | 135 | 95.5 | – | – |
| C[C@@]1(c2cc(NC(=O)c3ccc(Cl)cn3)ccc2F)Cn2cccc2C(N)=N1 [Compound 5, (R)-5-chloro-pyridine-2-carboxylic acid [3-(1-amino-3-methyl-3,4-dihydro-pyrrolo[1,2-a]pyrazin-3-yl)-4-fluoro-phenyl]-amide] | 2.95 | 37.2 | 2.82 | – | – |
| C[C@@]1(c2cc(NC(=O)c3ccc(C#N)cn3)ccc2F)Cn2cc(C(F)(F)F)cc2C(N)=N1 [Compound 9] | 12 | 33.9 | 10.7 | – | – |
| COCC1(c2cc(NC(=O)c3ccn(C(F)F)n3)ccc2F)Cn2cc(C(F)(F)F)cc2C(N)=N1 (stereo not drawn) [Compound 26] | 501 | 2880 | 537 | – | – |
| Cc1nc(C(=O)Nc2ccc(F)c([C@]3(C)Cn4cc(F)cc4C(N)=N3)c2)co1 [Compound 16] | 20.4 | 49 | 19.5 | – | – |
| COCC1(c2cc(NC(=O)c3ccc(F)cn3)ccc2F)Cn2cc(C(F)(F)F)cc2C(N)=N1 (stereo not drawn) [Compound 30] | – | 34700 | – | <5 | <5 |
| COCC1(c2cc(NC(=O)c3ccn(C(F)F)n3)ccc2F)Cn2cc(C(F)(F)F)cc2C(N)=N1 (single isomer, unassigned) [Compound 32] | – | 1740 | – | 6.54 | 6.53 |
| COCC1(c2cc(NC(=O)c3cnc(OC)cn3)ccc2F)Cn2cc(C(F)(F)F)cc2C(N)=N1 (stereo not drawn) [Compound 24] | – | 3160 | – | 6.30 | 6.35 |
| Cc1nc(C(=O)Nc2ccc(F)c([C@]3(C)Cn4cc(C(F)(F)F)cc4C(N)=N3)c2)co1 [Compound 20] | 24 | 102 | 23.4 | – | – |

Source: patent US9845326B2, “Substituted 3,4-dihydropyrrolo[1,2-A]pyrazines as beta-secretase (BACE) inhibitors” (priority 2011, dated 2017)
